Laboratory results: US7744889B2, “Alpha, beta-unsaturated sulfoxides for treating proliferative disorders” (Temple University - Of The Commonwealth System of Higher …, priority 2003, dated 2010)

Key:
DU145, BT20, H157, DLD1 = assay: Effect on tumor cell lines, viability by Trypan blue exclusion after 96 hours; type: cell-based; details: concentration required for 50% growth inhibition vs vehicle (DMSO) treated cells, doses 10 nM to 5 μM, one class for the four cell lines
Description: The effect of the α,β-unsaturated sulfoxides according to Formula I on tumor cells of prostate, colon, lung and breast origin was examined by utilizing the following cell lines: prostate tumor cell line DU-145; colorectal carcinoma cell line DLD-1; non-small cell lung carcinoma cell line H157; and breast tumor cell line BT-20. BT-20 is an estrogen-unresponsive cell line. BT-20, DLD-1 and H157 were grown in Dulbecco's modified Eagle's medium (DMEM) containing 10% fetal bovine serum supplemented with penicillin and streptomycin. DU145 was cultured in RPMI with 10% fetal bovine serum containing penicillin and streptomycin. NIH/3T3 (normal murine fibroblasts) and HFL-1cells (normal diploid human lung fibroblasts) were grown in DMEM containing 10% calf serum supplemented with penicillin and streptomycin.
Cells were plated at density levels of 1.0×10^5 cells per well in six-well plates. Cell cultures were maintained at 37° C. in a humidified atmosphere of 5% CO2.
Cells were treated with compounds of the invention at doses ranging from 10 nM to 5 μM concentration, and cell viability was determined after 96 hours by the Trypan blue exclusion method.
Values are reported as the GI50, i.e., the concentration (μM) required for 50% growth inhibition as compared to vehicle (DMSO) treated cells. The values reported in Table 7 are: ***=10-100 nM; **=100 nM-1μM; and *=>1μM.
Cells were treated with the test compound at concentrations in the range from 10 nM to 5 μM, and cell viability was determined after 96 hours by the Trypan blue exclusion method.

| Compound | melting point | GI50 (DU145, BT20, H157, DLD1) |
| --- | --- | --- |
| COc1cc(OC)c(/C=C/[S+]([O-])Cc2ccc(OC)c(N)c2)c(OC)c1 (stereo not drawn) [Example 33, (E)-2,4,6-trimethoxystyryl-4-methoxy-3-aminobenzylsulfoxide] | 136 to 140 °C | 10 to 100 nM |
| O=C(O)c1ccc(/C=C/[S+]([O-])Cc2ccc(Cl)cc2)cc1 (stereo not drawn) [Example 32] | 270 to 274 °C | – |
| COc1cc(OC)c(/C=C/[S+]([O-])Cc2ccc(OC)c(O)c2)c(OC)c1 (stereo not drawn) [Example 31] | 112 to 115 °C | 10 to 100 nM |
| COc1cc(OC)c(/C=C/[S+]([O-])Cc2ccc(OC)c([N+](=O)[O-])c2)c(OC)c1 (stereo not drawn) [Example 30] | 140 to 146 °C | > 1000 nM |
| COc1ccc(C[S+]([O-])/C=C/c2c(OC)cc(OC)cc2OC)cc1 (stereo not drawn) [Example 29] | 92 to 94 °C | 100 to 1000 nM |
